Patent publication US3953604A, “1-(2-Substituted-chromonyloxy)-2-hydroxy-3-(substituted phenoxy)propanes” (priority 1973, dated 1976)
Where “and” joins values, the source holds several entries; their conditions need not be identical. Equal values may be shown once. Where a name gives a salt, the structure may show the parent alone.

Assays:
[1] = tested on: allergic bronchial asthma; details: in vivo; cited from earlier work
[2] = tested on: passive cutaneous anaphylaxis; test: duration of antiallergic activity by the PCA test, compared directly with DSCG; type: in vivo; details: rat; for Mean Reaction Diameters in Milimeters After 25 μ moles/kg of Test Compound: 25 μ moles/kg test compound 10 minutes before egg albumin antigen, groups of 10 animals
Description: (§1) The intensity of such PCA reaction is assessed by measuring the diameters of wheals which develop in the skin of the test animal. Details of the PCA test can be found in the following references: I. Motar, Life Sciences, 1:465 (1963); and B. Ogilvie, Immunology, 12:113 (1967).
The duration of antiallergic activity of compounds representative of the above examples was also determined by the PCA test described in Example 66. In each case, 25 μ moles of the test compound were administered 10 minutes before injection of the egg albumin antigen in rats. The following table reports the mean reactions diameters of wheals in milimeters for the compounds described in the above Examples and disodium cromoglycate (DSCG). In order to achieve maxium significance of results, the effect of each compound was compared directly with DSCG using groups of 10 animals selected at random from the same population.

[3] = acute toxicity tests, intravenous, animals observed for one week; details: in vivo, rat, dose is the maximum possible, limited by solubility, read-out: Therapeutic Ratio (Dose/ID50)
Description: Acute toxicity of compounds representative of the above Examples was determined in rats. The test compounds were administered intravenously in either 40 ml/kg of physiological saline or […] and saline. Compounds which are insoluble in saline were administered in […] and saline. Doses administered represent the maximun dose possible and are limited by solubility factors. ID50 in the table is used as defined in Example 66. Test compounds are identified by their respective Example Number, above.

[4] = tested on: passive cutaneous anaphylaxis; test: passive cutaneous anaphylaxis test (PCA), egg albumin as the antigen: antiallergic activity; type: in vivo; details: iv; rat; injected intravenously together with the antigen; at least 3 groups of 5 rats; read-out: ID50 (dose which reduced the diameter of the wheel by 50%)
Description: Compounds representative of the above examples were evaluated for antiallergic activity in the rat by the passive cutaneous anaphylaxis test (hereafter PCA), utilizing egg albumin as the antigen.
as §1
In the following table, ID50 is the dose which reduced the diameter of the wheel by 50% when injected intravenously together with the antigen. At least 3 groups of 5 rats were used to determine the ID50 for each compound tested. The reference compound utilized was disodium chromoglycate (DSCG). The test compounds are identified by their respective Example Numbers above.

SMILES | untoward side effects [1] | Mean Reaction Diameters in Milimeters After 25 μ moles/kg of DSCG ([2]; 25 μ moles/kg DSCG 10 minutes before egg albumin antigen, direct comparison with the test compound of the same line, disodium salt) | selectivity ratio at 168 h [3] | Mean Reaction Diameters in Milimeters After 25 μ moles/kg of Test Compound [2] [Milimeters] | ED50 [4] [µmol/kg]
O=C(O)c1cc(=O)c2c(OCC(O)COc3cccc4oc(C(=O)O)cc(=O)c34)cccc2o1 [DSCG, 1,3-di(2-carboxy-4-oxochromon-5-yloxy)-2-hydroxy-propane disodium salt, reference compound] | several untoward side effects | 13.4 ± 0.3 Milimeters and 10.6 ± 0.7 Milimeters and 9.7 ± 0.3 Milimeters and 8.9 ± 0.8 Milimeters and 8.6 ± 0.3 Milimeters and 12.3 ± 0.2 Milimeters | > 1150 |  | 
O=C(O)c1cc(=O)c2c(OCC(O)COc3ccccc3)cccc2o1 (centres unmarked) [Example 4, 1-(2-Carboxychromon-5-yloxy)-2-Hydroxy-3-Phenoxypropane Sodium Salt] |  |  | > 339 | 13.0 ± 0.3 | 6.25
O=C(O)c1cc(=O)c2c(OCC(O)COc3ccc(Br)cc3)cccc2o1 (centres unmarked) [Example 8, 1-(2-Carboxychromon-5-yloxy)-2-Hydroxy-3-p-Bromophenoxypropane Sodium Salt] |  |  | > 40 | 6.4 ± 0.4 | 6.5
O=C(O)c1cc(=O)c2c(OCC(O)COc3ccc(Cl)cc3)cccc2o1 (centres unmarked) [Example 11, 1-(2-Carboxychromon-5-yloxy)-2-Hydroxy-3-p-Chlorophenoxypropane] |  |  | > 43 | 2.8 ± 0.4 | 5.5
COc1ccc(OCC(O)COc2cccc3oc(C(=O)O)cc(=O)c23)cc1 (centres unmarked) [Example 15, 1-(2-Carboxychromon-5-yloxy)-2-Hydroxy-3-p-Methoxyphenoxypropane Sodium Salt] |  |  | > 62 | 11.0 ± 0.5 | 20
Cc1ccccc1OCC(O)COc1cccc2oc(C(=O)O)cc(=O)c12 (centres unmarked) [Example 19, 1-(2-Carboxychromon-5-yloxy)-2-Hydroxy-3-o-Cresyloxypropane Sodium Salt] |  |  | > 281 | 10.3 ± 0.2 | 7
CCOC(=O)c1cc(=O)c2c(OCC(O)COc3ccc(C#N)cc3)cccc2o1 (centres unmarked) [Example 34, 1-(2-Carbethoxychromon-5-yloxy)-2-Hydroxy-3-p-Cyanophenoxypropane] |  |  | > 84 |  | 2.5
N#Cc1ccc(OCC(O)COc2cccc3oc(C(=O)O)cc(=O)c23)cc1 (centres unmarked) [Example 35, 1-(2-Carboxychromon-5-yloxy)-2-Hydroxy-3-p-Cyanophenoxypropane Sodium Salt] |  |  | > 3170 | 8.9 ± 0.7 | 0.75
O=C(O)c1cc(=O)c2c(OCC(O)COc3ccc([N+](=O)[O-])cc3)cccc2o1 (centres unmarked) [Example 38, 1-(2-Carboxychromon-5-yloxy)-2-Hydroxy-3-p-Nitrophenoxypropane Sodium Salt] |  |  | > 173 | 11.2 ± 0.3 | 3.6
O=C(O)c1cc(=O)c2ccc(OCC(O)COc3ccccc3)cc2o1 (centres unmarked) [Example 41, 1-(2-Carboxychromon-7-yloxy)-2-Hydroxy-3-Phenoxypropane Sodium Salt] |  |  |  |  | 14
CCOC(=O)c1ccc(OCC(O)COc2cccc3oc(C(=O)O)cc(=O)c23)cc1 (centres unmarked) [Example 44, 1-(2-Carboxychromon-5-yloxy)-2-Hydroxy-3-p-Carbethoxyphenoxypropane Sodium Salt] |  |  |  | 6.1 ± 0.4 | 8.25
CC(=O)c1c(O)cccc1OCC(O)COc1cccc(C(F)(F)F)c1 (centres unmarked) [Example 57, 1-(2-Acetyl-3-hydroxphenoxy)-2-Hydroxy-3-(m-trifluoromethylphenoxy) propane] |  |  |  | 8.4 ± 0.5 | 
O=C(O)c1cc(=O)c2c(OCC(O)COc3ccc(Cl)cc3Cl)cccc2o1 (centres unmarked) [Example 62, 1-(2-Carboxychromon-5-yloxy)-2-Hydroxy-3-(2,4-dichlorophenoxy) propane Sodium Salt] |  |  |  | 1.3 ± 0.5 | 
O=C(O)c1cc(=O)c2c(OCC(O)COc3ccc(F)cc3)cccc2o1 (centres unmarked) [Example 65, 1-(2-Carboxychromon-5-yloxy)-2-Hydroxy-3-(p-fluorophenoxy)propane Sodium Salt] |  |  |  | 12.2 ± 0.2 | 
